Assay results reported in patent publication US8642788B2, “Activators of executioner procaspases 3, 6 and 7” (The Regents of the University of California, priority 2008, dated 2014).

Columns and labels:
Assay type in all cases: biochemical
procaspase-6 = target: T1, procaspase-6 (Homo sapiens, UniProt P55212); assay: Executioner procaspase-6 activation assay (Ac-VEID-AFC fluorogenic substrate); conditions: incubation with compound for 5 h at 37° C.; 100 nM procaspase
T1 sequence (P55212 1-293): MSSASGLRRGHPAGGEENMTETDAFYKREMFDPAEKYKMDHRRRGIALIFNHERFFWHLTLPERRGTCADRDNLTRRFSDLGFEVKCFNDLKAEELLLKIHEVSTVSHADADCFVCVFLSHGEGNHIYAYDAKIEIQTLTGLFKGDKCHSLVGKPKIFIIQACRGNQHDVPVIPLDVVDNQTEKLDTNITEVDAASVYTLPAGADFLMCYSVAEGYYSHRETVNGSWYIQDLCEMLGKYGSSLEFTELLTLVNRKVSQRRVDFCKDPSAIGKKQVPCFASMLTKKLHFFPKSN
How it was run: (§1)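 Procaspase at 100 nM incubated with compound (100 nM–100 μM) in 50 mM HEPES pH 7.4, KCl, DTT, 0.01% Triton X-100, 3% DMSO, 37 °C for 5 h; then 25 μM Ac-DEVD-AFC (procaspase-7) or Ac-VEID-AFC (procaspase-6), kinetic fluorescence 30 min (ex 365/em 495); EC50 reported.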

procaspase-7 = target: T2, procaspase-7 (Homo sapiens, UniProt P55210); assay: Executioner procaspase-7 activation assay (Ac-DEVD-AFC fluorogenic substrate); conditions: incubation with compound for 5 h at 37° C.; 100 nM procaspase
T2 construct: His6 (C); made in house; host or cells: E. coli BL21(DE3)RP, pET-21b
T2 sequence (P55210 1-303): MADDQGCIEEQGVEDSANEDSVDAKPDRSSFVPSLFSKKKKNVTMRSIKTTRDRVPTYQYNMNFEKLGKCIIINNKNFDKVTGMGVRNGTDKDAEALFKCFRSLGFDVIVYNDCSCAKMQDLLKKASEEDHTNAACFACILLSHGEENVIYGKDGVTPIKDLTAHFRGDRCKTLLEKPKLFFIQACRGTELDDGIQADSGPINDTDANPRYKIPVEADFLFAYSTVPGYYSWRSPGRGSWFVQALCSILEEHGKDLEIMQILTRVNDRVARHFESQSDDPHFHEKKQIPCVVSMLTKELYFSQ
How it was run: as §1

procaspase-3 = target: T3, procaspase-3 (Homo sapiens, UniProt P42574); assay: Executioner procaspase-3 activation assay (Ac-DEVD-AFC fluorogenic substrate); conditions: incubation with compound for 5 h at 37° C.; 100 nM procaspase; read-out: Procaspase Activation 3
T3 construct: His6 (C); made in house; host or cells: E. coli BL21(DE3)RP, pET-23b
T3 sequence (P42574 1-277): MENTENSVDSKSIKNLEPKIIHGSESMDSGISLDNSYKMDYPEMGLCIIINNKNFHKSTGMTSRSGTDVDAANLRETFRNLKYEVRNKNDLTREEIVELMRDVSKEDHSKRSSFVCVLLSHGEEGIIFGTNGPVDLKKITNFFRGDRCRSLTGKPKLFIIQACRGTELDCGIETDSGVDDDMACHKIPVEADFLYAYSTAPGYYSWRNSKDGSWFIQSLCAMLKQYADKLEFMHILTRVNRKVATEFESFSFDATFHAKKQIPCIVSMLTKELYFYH
How it was run: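 Procaspase-3 at 100 nM was incubated with activating compounds (100 nM to 100 uM) in 50 mM HEPES pH 7.4, 50 mM KCl, 1 mM DTT and 0.01% Triton-X100, the detergent limiting aggregation artefacts. Protein, substrate and inhibitor were kept as frozen aliquots and thawed just before use.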

| SMILES | EC50 (procaspase-6) | EC50 (procaspase-7) | EC50 (procaspase-3) |
| --- | --- | --- | --- |
| COc1cccc2cc(C(=O)Nc3cccc(-c4ccc(O)nc4)c3)c(=O)oc12 [compound 140, 8-Methoxy-2-oxo-2H-chromene-3-carboxylic acid [3-(6-hydroxy-pyridin-3-yl)-phenyl]-amide] | > 100 µM | > 100 µM | > 100 µM |
| COc1ncccc1-c1cccc(NC(=O)c2cc3cccc(O)c3oc2=O)c1 [compound 141, 8-Hydroxy-2-oxo-2H-chromene-3-carboxylic acid [3-(2-methoxy-pyridin-3-yl)-phenyl]-amide] | > 100 µM | 10 to 50 µM | > 100 µM |
| COc1ncccc1-c1cccc(NC(=O)c2cc3cccc(OC)c3oc2=O)c1 [compound 142, 8-Methoxy-2-oxo-2H-chromene-3-carboxylic acid [3-(2-methoxy-pyridin-3-yl)-phenyl]-amide] | > 100 µM | > 100 µM | > 100 µM |
| N#Cc1ccc(-c2cccc(NC(=O)c3cc4cccc(O)c4oc3=O)c2)cc1F [compound 143, 8-Hydroxy-2-oxo-2H-chromene-3-carboxylic acid (4′-cyano-3′-fluoro-biphenyl-3-yl)-amide] | > 100 µM | > 100 µM | > 100 µM |
| COc1cccc2cc(C(=O)Nc3cccc(-c4ccc(C#N)c(F)c4)c3)c(=O)oc12 [compound 144, 8-Methoxy-2-oxo-2H-chromene-3-carboxylic acid (4′-cyano-3′-fluoro-biphenyl-3-yl)-amide] | > 100 µM | > 100 µM | > 100 µM |
| N#Cc1cc(-c2cccc(NC(=O)c3cc4cccc(O)c4oc3=O)c2)ccc1F [compound 145, 8-Hydroxy-2-oxo-2H-chromene-3-carboxylic acid (3′-cyano-4′-fluoro-biphenyl-3-yl)-amide] | > 100 µM | > 100 µM | > 100 µM |
| COc1cccc2cc(C(=O)Nc3cccc(-c4ccc(F)c(C#N)c4)c3)c(=O)oc12 [compound 146, 8-Methoxy-2-oxo-2H-chromene-3-carboxylic acid (3′-cyano-4′-fluoro-biphenyl-3-yl)-amide] | > 100 µM | > 100 µM | > 100 µM |
| N#Cc1cccc(-c2cccc(NC(=O)c3cc4cccc(O)c4oc3=O)c2)c1 [compound 147, 8-Hydroxy-2-oxo-2H-chromene-3-carboxylic acid (3′-cyano-biphenyl-3-yl)-amide] | > 100 µM | > 100 µM | > 100 µM |
| COc1cccc2cc(C(=O)Nc3cccc(-c4cccc(C#N)c4)c3)c(=O)oc12 [compound 148, 8-Methoxy-2-oxo-2′-chromene-3-carboxylic acid (3′-cyano-biphenyl-3-yl)-amide] | > 100 µM | > 100 µM | > 100 µM |
| O=C(Nc1cccc(-c2cn[nH]c2)c1)c1cc2cccc(O)c2oc1=O [compound 149, 8-Hydroxy-2-oxo-2H-chromene-3-carboxylic acid [3-(1H-pyrazol-4-yl)-phenyl]-amide] | > 100 µM | > 100 µM | > 100 µM |
| COc1cccc2cc(C(=O)Nc3cccc(-c4cn[nH]c4)c3)c(=O)oc12 [compound 150, 8-Methoxy-2-oxo-2H-chromene-3-carboxylic acid [3-(1H-pyrazol-4-yl)-phenyl]-amide] | > 100 µM | > 100 µM | > 100 µM |
| Cn1nccc1-c1cccc(NC(=O)c2cc3cccc(O)c3oc2=O)c1 [compound 151, 8-Hydroxy-2-oxo-2H-chromene-3-carboxylic acid [3-(2-methyl-2H-pyrazol-3-yl)-phenyl]-amide] | > 100 µM | 10 to 50 µM | 10 to 50 µM |
| COc1cccc2cc(C(=O)Nc3cccc(-c4ccnn4C)c3)c(=O)oc12 [compound 152, 8-Methoxy-2-oxo-2H-chromene-3-carboxylic acid [3-(2-methyl-2H-pyrazol-3-yl)-phenyl]-amide] | > 100 µM | > 100 µM | > 100 µM |
| Cc1noc(C)c1-c1cccc(NC(=O)c2cc3cccc(O)c3oc2=O)c1 [compound 153, 8-Hydroxy-2-oxo-2H-chromene-3-carboxylic acid [3-(3,5-dimethyl-isoxazol-4-yl)-phenyl]-amide] | > 100 µM | 10 to 50 µM | 10 to 50 µM |
| COc1cccc2cc(C(=O)Nc3cccc(-c4c(C)noc4C)c3)c(=O)oc12 [compound 154, 8-Methoxy-2-oxo-2H-chromene-3-carboxylic acid [3-(3,5-dimethyl-isoxazol-4-yl)-phenyl]-amide] | > 100 µM | > 100 µM | > 100 µM |
| O=C(Nc1cccc(-c2ccn[nH]2)c1)c1cc2cccc(O)c2oc1=O [compound 155, 8-Hydroxy-2-oxo-2H-chromene-3-carboxylic acid [3-(2H-pyrazol-3-yl)-phenyl]-amide] | > 100 µM | > 100 µM | > 100 µM |
| COc1cccc2cc(C(=O)Nc3cccc(-c4ccn[nH]4)c3)c(=O)oc12 [compound 156, 8-Methoxy-2-oxo-2H-chromene-3-carboxylic acid [3-(2H-pyrazol-3-yl)-phenyl]-amide] | > 100 µM | > 100 µM | > 100 µM |
| O=C(Nc1cccc(-c2ccc3[nH]c(=O)[nH]c3c2)c1)c1cc2cccc(O)c2oc1=O [compound 157, 8-Hydroxy-2-oxo-2H-chromene-3-carboxylic acid [3-(2-oxo-2,3-dihydro-1H-benzoimidazol-5-yl)-phenyl]-amide] | > 100 µM | > 100 µM | > 100 µM |

Now from value to molecule:

| EC50 (procaspase-6) | EC50 (procaspase-7) | EC50 (procaspase-3) | SMILES |
| --- | --- | --- | --- |
| > 100 µM | > 100 µM | > 100 µM | COc1cncc(-c2cccc(NC(=O)c3cc4cccc(OC)c4oc3=O)c2)c1 [compound 132, 8-Methoxy-2-oxo-2H-chromene-3-carboxylic acid [3-(5-methoxy-pyridin-3-yl)-phenyl]-amide] |
| > 100 µM | > 100 µM | > 100 µM | COc1ncc(-c2cccc(NC(=O)c3cc4cccc(O)c4oc3=O)c2)cn1 [compound 133, 8-Hydroxy-2-oxo-2H-chromene-3-carboxylic acid [3-(2-methoxy-pyrimidin-5-yl)-phenyl]-amide] |
| > 100 µM | > 100 µM | > 100 µM | COc1ncc(-c2cccc(NC(=O)c3cc4cccc(OC)c4oc3=O)c2)cn1 [compound 134, 8-Methoxy-2-oxo-2H-chromene-3-carboxylic acid [3-(2-methoxy-pyrimidin-5-yl)-phenyl]-amide] |
| > 100 µM | > 100 µM | > 100 µM | O=C(Nc1cccc(-c2cncnc2)c1)c1cc2cccc(O)c2oc1=O [compound 135, 8-Hydroxy-2-oxo-2H-chromene-3-carboxylic acid (3-pyrimidin-5-yl-phenyl)-amide] |
| 50 to 200 µM | > 100 µM | 50 to 200 µM | COc1cccc2cc(C(=O)Nc3cccc(-c4cncnc4)c3)c(=O)oc12 [compound 136, 8-Methoxy-2-oxo-2H-chromene-3-carboxylic acid (3-pyrimidin-5-yl-phenyl)-amide] |
| > 100 µM | > 100 µM | > 100 µM | CN(C)c1ccc(-c2cccc(NC(=O)c3cc4cccc(O)c4oc3=O)c2)cn1 [compound 137, 8-Hydroxy-2-oxo-2H-chromene-3-carboxylic acid [3-(6-dimethylamino-pyridin-3-yl)-phenyl]-amide] |
| > 100 µM | > 100 µM | > 100 µM | COc1cccc2cc(C(=O)Nc3cccc(-c4ccc(N(C)C)nc4)c3)c(=O)oc12 [compound 138, 8-Methoxy-2-oxo-2H-chromene-3-carboxylic acid [3-(6-dimethylamino-pyridin-3-yl)-phenyl]-amide] |
| > 100 µM | > 100 µM | > 100 µM | O=C(Nc1cccc(-c2ccc(O)nc2)c1)c1cc2cccc(O)c2oc1=O [compound 139, 8-Hydroxy-2-oxo-2H-chromene-3-carboxylic acid [3-(6-hydroxy-pyridin-3-yl)-phenyl]-amide] |
